Source: patent publication US7812014B2, “Bicyclic 6-alkylidene-penems as β-lactamase inhibitors” (priority 2002, dated 2010)

Tests used:
class B enzyme CcrA = class B enzyme CcrA (Bacteroides fragilis, UniProt P25910); test: IC50 determination, β-lactamase inhibition (nitrocefin, spectrophotometric); assay type: biochemical; conditions: enzyme 1.2 nM; 10 minutes preincubation at 25° C.; nitrocefin 50 μg/ml; pH 7.0; read-out: IC50 (nM) Class B Ccr
[1] = molecular target: class A β-lactamase Imi-1 (Enterobacter cloacae, UniProt Q46991); test: as above; assay type: biochemical; conditions: enzyme 7.1 nM; 10 minutes preincubation at 25° C.; nitrocefin 50 μg/ml; pH 7.0; read-out: IC50 (nM) Class A Imi
class A β-lactamase Imi-1, sequence (Q46991 28-292): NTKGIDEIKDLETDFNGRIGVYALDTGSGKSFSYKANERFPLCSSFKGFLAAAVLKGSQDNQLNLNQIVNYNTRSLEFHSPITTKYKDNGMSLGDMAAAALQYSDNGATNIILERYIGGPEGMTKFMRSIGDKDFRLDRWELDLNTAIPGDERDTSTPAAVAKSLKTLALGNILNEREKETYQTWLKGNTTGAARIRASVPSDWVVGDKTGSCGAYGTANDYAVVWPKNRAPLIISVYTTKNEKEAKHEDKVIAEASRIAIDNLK

S. aureus GC2216 = test: Antimicrobial susceptibility testing, microbroth dilution, piperacillin + inhibitor; assay type: cell-based; conditions: piperacillin combined with constant 4 ug/ml of inhibitor; 35° C. for 18 hours
Experimental: (§1) Antimicrobial susceptibility testing. The in vitro activities of the antibiotics were determined by the microbroth dilution method as recommended by the National Committee for Clinical Laboratory Standards (NCCLS). (NCCLS. 2000. Methods for Dilution Antimicrobial Susceptibility Tests for Bacteria That Grow Aerobically; Approved Standards: M7-A5, vol. 19. National Committe for Clinical Laboratory Standards, Villanova, Pa.). Mueller-Hinton II broth (MHBII) (BBL Cockeysville, Md.), was used for the testing procedure. Microtiter plates containing 50 μl per well of two-fold serial dilutions of piperacillin combined with a constant amount (4 ug/ml) of a B-lactamase inhibitor were inoculated with 50 μl of inoculum to yield the appropriate density (10^5 CFU/ml) in 100·I final volume. The plates were incubated for 18-22 hours at 35° C. in ambient air. […] The MIC data obtained by the above said procedure are enlisted in Table 2.

E. Coli GC2894 (Ampc) = test: as above; assay type: cell-based; conditions: piperacillin combined with constant 4 ug/ml of inhibitor; 35° C. for 18 hours
Experimental: as §1

E. Coli GC2847 (TEM-1) = test: as above; assay type: cell-based; conditions: piperacillin combined with constant 4 ug/ml of inhibitor; 35° C. for 18 hours
Experimental: as §1

E. Coli GC22033 = test: as above; assay type: cell-based; conditions: piperacillin combined with constant 4 ug/ml of inhibitor; 35° C. for 18 hours
Experimental: as §1

E. Coli GC2844 = test: as above; assay type: cell-based; conditions: piperacillin combined with constant 4 ug/ml of inhibitor; 35° C. for 18 hours
Experimental: as §1

E. Coli GC2920 (IRT-2) = test: as above; assay type: cell-based; conditions: piperacillin combined with constant 4 ug/ml of inhibitor; 35° C. for 18 hours
Experimental: as §1

[2] = system: P. aeruginos GC1764 (Ampc); test: as above; assay type: cell-based; conditions: piperacillin combined with constant 4 ug/ml of inhibitor; 35° C. for 18 hours
Experimental: (§2) Antimicrobial susceptibility testing. The in vitro activities of the antibiotics were determined by the microbroth dilution method as recommended by the National Committee for Clinical Laboratory Standards (NCCLS). (NCCLS. 2000. Methods for Dilution Antimicrobial Susceptibility Tests for Bacteria That Grow Aerobically; Approved Standards: M7-A5, vol. 19. National Committe for Clinical Laboratory Standards, Villanova, Pa.). Mueller-Hinton II broth (MHBII) (BBL Cockeysville, Md.), was used for the testing procedure. Microtiter plates containing 50 μl per well of two-fold serial dilutions of piperacillin combined with a constant amount (4 ug/ml) of a B-lactamase inhibitor were inoculated with 50 μl of inoculum to yield the appropriate density (10^5 CFU/ml) in 100·I final volume. The plates were incubated for 18-22 hours at 35° C. in ambient air.

[3] = system: S. Marcescens GC1781 Sme-1 + Ampc; test: as above; assay type: cell-based; conditions: piperacillin combined with constant 4 ug/ml of inhibitor; 35° C. for 18 hours
Experimental: as §2

E. Cloacae GC1477 (Ampc) = test: as above; assay type: cell-based; conditions: piperacillin combined with constant 4 ug/ml of inhibitor; 35° C. for 18 hours
Experimental: as §2

class C enzyme AmpC = class C enzyme AmpC (Enterobacter cloacae, UniProt P05364); test: biochemical; design: species or system Enterobacter cloaca; conditions: enzyme 2.1 nM; 10 minutes preincubation at 25° C.; nitrocefin 50 μg/ml; pH 7.0; read-out: IC50 (nM) Class C AmpC
class C enzyme AmpC, sequence (P05364 21-381): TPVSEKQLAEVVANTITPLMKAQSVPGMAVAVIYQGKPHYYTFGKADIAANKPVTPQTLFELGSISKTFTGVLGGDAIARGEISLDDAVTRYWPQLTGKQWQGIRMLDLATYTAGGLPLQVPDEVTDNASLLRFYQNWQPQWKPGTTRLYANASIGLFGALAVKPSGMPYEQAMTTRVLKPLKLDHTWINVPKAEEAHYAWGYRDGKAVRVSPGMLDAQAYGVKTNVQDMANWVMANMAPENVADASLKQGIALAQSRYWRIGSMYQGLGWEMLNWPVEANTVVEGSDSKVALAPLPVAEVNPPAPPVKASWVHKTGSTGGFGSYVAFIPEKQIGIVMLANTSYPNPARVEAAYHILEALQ

[4] = system: Clinical isolates that have been adapted to cause infection in mice; test: In vivo antibacterial protection, 7 day survival of infected mice; design: species or system mice strain CD-1; conditions: Ratio of Piperacillin vs. Inhibitor not given
[5] = molecular target: class A β-lactamase TEM-1 (Escherichia coli, UniProt P62593); test: IC50 determination, β-lactamase inhibition (nitrocefin, spectrophotometric); assay type: biochemical, E. coli; conditions: enzyme 4.3 nM; 10 minutes preincubation at 25° C.; nitrocefin 50 μg/ml; pH 7.0
class A β-lactamase TEM-1, sequence (P62593 24-286 limits assumed): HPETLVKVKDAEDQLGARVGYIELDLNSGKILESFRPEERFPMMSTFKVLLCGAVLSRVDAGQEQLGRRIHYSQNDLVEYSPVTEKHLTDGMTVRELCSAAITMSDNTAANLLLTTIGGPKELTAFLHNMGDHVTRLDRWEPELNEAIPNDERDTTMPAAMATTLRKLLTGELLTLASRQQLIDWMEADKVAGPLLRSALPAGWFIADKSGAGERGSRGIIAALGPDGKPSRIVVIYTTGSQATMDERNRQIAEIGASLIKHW

class B enzyme CcrA, sequence (P25910 19-249): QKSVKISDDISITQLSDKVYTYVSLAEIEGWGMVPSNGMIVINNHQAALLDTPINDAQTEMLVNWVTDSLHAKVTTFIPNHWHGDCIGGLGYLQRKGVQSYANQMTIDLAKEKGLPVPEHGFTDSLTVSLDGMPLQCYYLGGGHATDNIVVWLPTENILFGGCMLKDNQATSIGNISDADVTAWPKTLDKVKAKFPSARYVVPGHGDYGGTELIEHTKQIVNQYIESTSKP

O=C([O-])C1=CS[C@@H]2/C(=C\c3cc4n(n3)CCCO4)C(=O)N12.[Na+] [Example 36, (5R)(6Z)-6-(6,7-5H-Dihydropyrazolo[5,1-b]oxazin-2-ylmethylene)-7-oxo-4-thia-1-azabicyclo[3.2.0]hept-2-ene-2-carboxylic acid, sodium salt]
IC50 (class B enzyme CcrA): 140 nM
IC50 [1]: 413 nM
Minimal Inhibitory Concentration S. aureus GC2216 (S. aureus GC2216): 0.06 µg/mL
Minimal Inhibitory Concentration E. Coli GC2894 (Ampc) (E. Coli GC2894 (Ampc)): 2 µg/mL
Minimal Inhibitory Concentration E. Coli GC2847 (TEM-1) (E. Coli GC2847 (TEM-1)): 4 µg/mL
Minimal Inhibitory Concentration E. Coli GC22033 (E. Coli GC22033): 4 µg/mL
Minimal Inhibitory Concentration E. Coli GC2844 (E. Coli GC2844): 2 µg/mL
Minimal Inhibitory Concentration E. Coli GC2920 (IRT-2) (E. Coli GC2920 (IRT-2)): 2 µg/mL
Minimal Inhibitory Concentration P. aeruginos GC1764 (Ampc) [2]: 1 µg/mL
Minimal Inhibitory Concentration S. Marcescens GC1781 Sme-1 + Ampc [3]: 1 µg/mL
Minimal Inhibitory Concentration E. Cloacae GC1477 (Ampc) (E. Cloacae GC1477 (Ampc)): 16 µg/mL
IC50 (class C enzyme AmpC): 4.5 nM
ED50 [4]: 90 mg/kg
IC50 [5]: 6.3 nM
